In US8513423B2 (Janssen Pharmaceutica, NV, priority 2010, dated 2013):
Positions count from the first letter of the chain named. Like-named read-outs stand apart in the source and are kept apart here.

Columns and labels:
[1] = target: T1, purified wild type MGL (wt-MGLL 6H-11-313) (Homo sapiens, UniProt Q99685); test: MGL enzyme activity assay (4MU-B cleavage), wild type MGL; type: biochemical; conditions: 10 μM 4MU-B, 5 nM enzyme, 37° C., read-out: MGL wild type inh IC50
T1 construct: purified wild type MGL (wt-MGLL 6H-11-313)
T1 sequence (Q99685 1-303): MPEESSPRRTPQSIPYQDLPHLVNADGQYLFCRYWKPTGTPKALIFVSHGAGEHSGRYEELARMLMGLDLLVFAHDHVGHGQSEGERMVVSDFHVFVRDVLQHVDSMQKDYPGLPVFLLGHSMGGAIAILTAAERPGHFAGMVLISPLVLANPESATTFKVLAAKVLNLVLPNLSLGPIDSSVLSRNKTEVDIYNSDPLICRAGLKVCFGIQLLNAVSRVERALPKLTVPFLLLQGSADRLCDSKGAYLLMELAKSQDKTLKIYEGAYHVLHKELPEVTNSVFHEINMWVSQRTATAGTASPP
Method: All rate-based assays were performed in black 384-well polypropylene PCR microplates (Abgene) in a total volume of 30 μL. Substrate 4-methylumbelliferyl butyrate (4MU-B; Sigma) and either purified mutant MGL (mut-MGLL 11-313 L179S L186S) or purified wild type MGL (wt-MGLL 6H-11-313) were diluted separately into 20 mM PIPES buffer (pH=7.0), containing 150 mM NaCl and 0.001% Tween 20. Compounds of Formula (I) were pre-dispensed (50 nL) into the assay plate using a Cartesian Hummingbird prior to adding 4MU-B (25 μL of 1.2× solution to a final concentration of 10 μM) followed by enzyme (5 μL of a 6× solution to a final concentration of 5 nM) to initiate the reaction. Final compound concentrations ranged from 17 to 0.0003 μM. The fluorescence change due to 4MU-B cleavage was monitored with excitation and emission wavelengths of 335 and 440 nm, respectively, and a bandwidth of 10 nm (Safire^2, Tecan) at 37° C. for 5 min.
The IC50 values for compounds of Formula (I) were determined using Excel from a fit of the equation to the concentration-response plot of the fractional activity as a function of inhibitor concentration.

mutant MGL = target: T2, mutant MGL (Homo sapiens, UniProt Q99685, L169S/L176S); test: MGL ThermoFluor assay - mutant; type: binding
T2 construct: purified mutant MGL (mut-MGLL 11-313 L179S L186S)
T2 sequence (Q99685 1-303 L169S/L176S): T1 sequence (Q99685 1-303) with L169S, L176S
Method: The ThermoFluor (TF) assay is a 384-well plate-based binding assay that measures thermal stability of proteins^1,2. The experiments were carried out using instruments available from Johnson & Johnson Pharmaceutical Research & Development, LLC. TF dye used in all experiments was 1,8-ANS (Invitrogen: A-47). Final TF assay conditions used for MGL studies were 0.07 mg/ml of mutant MGL, 100 μM ANS, 200 mM NaCl, 0.001% Tween-20 in 50 mM PIPES (pH=7.0).
Screening compound plates contained 100% DMSO compound solutions at a single concentration. For follow-up concentration-response studies, compounds were arranged in a pre-dispensed plate (Greiner Bio-one: 781280), wherein compounds were serially diluted in 100% DMSO across 11 columns within a series. Columns 12 and 24 were used as DMSO reference and contained no compound. For both single and multiple compound concentration-repsonse experiments, the compound aliquots (46 nL) were robotically predispensed directly into 384-well black assay plates (Abgene: TF-0384/k) using the Hummingbird liquid handler. Following compound dispension, protein and dye solutions were added to achieve the final assay volume of 3 μL. The assay solutions were overlayed with 1 μl of silicone oil (Fluka, type DC 200: 85411) to prevent evaporation.
Bar-coded assay plates were robotically loaded onto a thermostatically controlled PCR-type thermal block and then heated from 40 to 90° C. degrees at a ramp-rate of 1° C./min for all experiments. Fluorescence was measured by continuous illumination with UV light (Hamamatsu LC6), supplied via fiber optics and filtered through a band-pass filter (380-400 nm; >6 OD cutoff). Fluorescence emission of the entire 384-well plate was detected by measuring light intensity using a CCD camera (Sensys, Roper Scientific) filtered to detect 500±25 nm, resulting in simultaneous and independent readings of all 384 wells. A single image with 20-sec exposure time was collected at each temperature, and the sum of the pixel intensity in a given area of the assay plate was recorded vs temperature and fit to standard equations to yield the Tm^1. • 1. Pantoliano, M. W., Petrella, E. C., Kwasnoski, J. D., Lobanov, V. S., Myslik, J., Graf, E., Carver, T., Asel, E., Springer, B. A., Lane, P., and Salemme, F. R. (2001) J Biomol Screen 6, 429-40. • 2. Matulis, D., Kranz, J. K., Salemme, F. R., and Todd, M. J. (2005) Biochemistry 44, 5258-66.
The Kd values for compounds of Formula (I) were determined from a fit of the equation to the concentration-response plot of the fractional activity as a function of Tm. For some experiments, quantitative NMR spectroscopy (qNMR) was used to measure concentration of the initial 100% DMSO compound solutions and, using the same fitting method, qKd values were determined

[2] = compound concentration measured by qNMR, read-out: MGL mutant ThermoFluor qKd (using qNMR conc.)
[3] = 0.07 mg/ml mutant MGL, pH=7.0, read-out: MGL mutant ThermoFluor Kd

IC50 [1] [nM] | Kd (mutant MGL; [2]) [nM] | Kd (mutant MGL; [3]) [nM] | SMILES
101 | 88.8 |  | O=C(c1ccc2c(c1)[nH]c(=O)n2CCC(F)(F)F)N1CC(C2CCN(C(=O)c3nccs3)CC2)C1 [Cpd 100, 5-({3-[1-(1,3-Thiazol-2-ylcarbonyl)piperidin-4-yl]azetidin-1-yl}carbonyl)-1-(3,3,3-trifluoropropyl)-1,3-dihydro-2H-benzimidazol-2-one]
23.2 | 14.8 |  | O=C(c1ccc2c(c1)ncn2-c1ccc(F)cc1)N1CC(C2CCN(C(=O)c3nccs3)CC2)C1 [Cpd 81, 1-(4-Fluorophenyl)-5-({3-[1-(1,3-thiazol-2-ylcarbonyl)piperidin-4-yl]azetidin-1-yl}carbonyl)-1H-benzimidazole]
104 | 3.9 |  | O=C(c1ccc2c(c1)[nH]c(=O)n2C1CCC(F)(F)CC1)N1CC(C2CCN(C(=O)c3nccs3)CC2)C1 [Cpd 101, 1-(4,4-Difluorocyclohexyl)-5-({3-[1-(1,3-thiazol-2-ylcarbonyl)piperidin-4-yl]azetidin-1-yl}carbonyl)-1,3-dihydro-2H-benzimidazol-2-one]
154 |  | 162 | O=C(c1cc[nH]c1)N1CCC(C2CN(C(=O)c3ccc(-c4ccccc4)cc3)C2)CC1 [Cpd 4, 4-[1-(Biphenyl-4-ylcarbonyl)azetidin-3-yl]-1-(1H-pyrrol-3-ylcarbonyl)piperidine]
< 5 |  | 5.5 | O=C(c1ccc2c(ccn2-c2ccc(Cl)cn2)c1)N1CC(C2CCN(C(=O)c3nccs3)CC2)C1 [Cpd 93, 1-(5-Chloropyridin-2-yl)-5-({3-[1-(1,3-thiazol-2-ylcarbonyl)piperidin-4-yl]azetidin-1-yl}carbonyl)-1H-indole]
163 | 3.4 |  | Cc1nc2cc(C(=O)N3CC(C4CCN(C(=O)c5nccs5)CC4)C3)ccc2n1C1CCC(F)(F)CC1 [Cpd 92, 1-(4,4-Difluorocyclohexyl)-2-methyl-5-({3-[1-(1,3-thiazol-2-ylcarbonyl)piperidin-4-yl]azetidin-1-yl}carbonyl)-1H-benzimidazole]
9.49 | 13.3 |  | Cc1nc2cc(C(=O)N3CC(C4CCN(C(=O)c5nccs5)CC4)C3)ccc2n1-c1ccc(F)c(F)c1 [Cpd 88, 1-(3,4-Difluorophenyl)-2-methyl-5-({3-[1-(1,3-thiazol-2-ylcarbonyl)piperidin-4-yl]azetidin-1-yl}carbonyl)-1H-benzimidazole]
16.6 | 43.6 |  | O=C(c1ccc2c(c1)[nH]c(=O)n2-c1ccc(F)c(F)c1)N1CC(C2CCN(C(=O)c3nccs3)CC2)C1 [Cpd 98, 1-(3,4-Difluorophenyl)-5-({3-[1-(1,3-thiazol-2-ylcarbonyl)piperidin-4-yl]azetidin-1-yl}carbonyl)-1,3-dihydro-2H-benzimidazol-2-one]
< 5 |  | 0.6 | O=C(c1ccc2c(ccn2-c2ccc(F)c(F)c2)c1)N1CC(C2CCN(C(=O)c3nccs3)CC2)C1
211 | 0.5 | 0.6 | Cc1c(C(=O)N2CCC(C3CN(C(=O)c4cscn4)C3)CC2)sc2cc(C(F)(F)F)ccc12 [Cpd 61]
111 | 20 |  | O=C(c1cscn1)N1CC(C2CCN(C(=O)c3ccc(-c4ccccc4)cc3F)CC2)C1 [Cpd 46]
10 | 24.9 |  | O=C(c1cc2ccc(C(F)(F)F)cc2s1)N1CC(C2(O)CCN(C(=O)c3nccs3)CC2)C1 [Cpd 94, 1-(1,3-Thiazol-2-ylcarbonyl)-4-(1-{[6-(trifluoromethyl)-1-benzothiophen-2-yl]carbonyl}azetidin-3-yl)piperidin-4-ol]
34 | 22.1 |  | O=C(c1ccc2c(c1)[nH]c(=O)n2-c1ccc(F)cc1)N1CC(C2CCN(C(=O)c3nccs3)CC2)C1 [Cpd 97, 1-(4-Fluorophenyl)-5-({3-[1-(1,3-thiazol-2-ylcarbonyl)piperidin-4-yl]azetidin-1-yl}carbonyl)-1,3-dihydro-2H-benzimidazol-2-one]
